Values of other authors in patent US8097606B2, “Antiglucocorticoids for the treatment of catatonia” (Corcept Therapeutics, Inc., priority 2003, dated 2012).

SMILES: CC#C[C@]1(O)CC[C@H]2[C@@H]3CCC4=CC(=O)CCC4=C3[C@@H](c3ccc(N(C)C)cc3)C[C@@]21C [mifepristone, 17-β-hydroxy-11-β-(4-dimethyl-aminophenyl)-17-α-(1-propynyl)-estra-4,9-dien-3-one]
- share of the daily dose excreted in the urine: less than 0.5%
